Experiments:
[1] = molecular target: Aβ42 seeding-mediated fibril growth (Homo sapiens, UniProt P05067); assay: Aβ42 seeding polymerization assay; type: biochemical; settings: for fibril growth and number of amyloid fibrils by TEM: 3 hours incubation of seeds and monomers with compound; for inhibition at 10 µM: read-out: inhibition of seeded fibril growth (seeding capacity of short fibrils)
monomeric Aβ42 = monomeric Aβ42 (Homo sapiens, UniProt P05067); assay: Fibrillization of monomeric Aβ42; type: biochemical
[2] = Pharmacokinetics and brain distribution after single administration; type: in vivo, C57/BL6 mice
[3] = tested on: mThy1-hAPP751 APPtg mouse model of AD; assay: Immunoblot of Aβ42 species in brain membrane fraction of APPtg mice; type: in vivo; settings: vs vehicle-treated APPtg mice
[4] = tested on: mThy1-hAPP751 APPtg mouse model of AD; assay: Aβ42 ELISA in APPtg mouse brain; type: in vivo; settings: vs vehicle-treated APPtg mice
[5] = tested on: mThy1-hAPP751 APPtg mouse model of AD; assay: Aβ immunostaining of plaques in frontal cortex and hippocampus of APPtg mice; type: in vivo; settings: same treatments as E16
[6] = tested on: mThy1-hAPP751 APPtg mouse model of AD; assay: Electron microscopy of neuropil and amyloid in APPtg mouse brain; type: in vivo; settings: same treatments as E16
[7] = tested on: mThy1-hAPP751 APPtg mouse model of AD; assay: Immunohistochemistry of synaptophysin, MAP2, NeuN and GFAP in APPtg mouse brain; type: in vivo; settings: for synapse loss (SYN-immunoreactivity) in the frontal cortex / synapse loss (SYN-immunoreactivity) in the hippocampus: vs APPtg mice treated with PBS
Slack (Slo2.2) channels = settings: ref Yang et al., 2006; cited from earlier work
protofibrillar Aβ42 = protofibrillar Aβ42 (Homo sapiens, UniProt P05067); assay: Conversion of Aβ42 protofibrils into mature fibrils; type: biochemical; settings: 48 hours, ThT
primary cortical neurons = settings: 0.5, 5, 10, 20 and 50 μM, 24 hours, MTT
Aβ = settings: ref Colombo et al., 2009; cited from earlier work

Sequence of Aβ42 seeding-mediated fibril growth (P05067 672-713 limits assumed): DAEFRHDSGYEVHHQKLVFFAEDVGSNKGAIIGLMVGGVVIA
Sequence of monomeric Aβ42 (P05067 672-713 limits assumed): as above
Sequence of protofibrillar Aβ42 (P05067 672-713 limits assumed): as above

| SMILES | IC50 [1] [µM] | fibril growth and number of amyloid fibrils by TEM [1] | inhibition at 10 µM [1] [%] | IC50 (monomeric Aβ42) [µM] | levels of Aβ42 monomers and intermediate species (immunoblot, 82E1) [3] | Aβ42 levels by ELISA, guanidine-HCl brain extractions [4] | Aβ42 levels by ELISA, membrane fractions [4] | amyloid fibrils in neuropil by electron microscopy [6] | status of axons/neurites in neuropil by electron microscopy [6] | synapse loss (SYN-immunoreactivity) in the frontal cortex [7] | synapse loss (SYN-immunoreactivity) in the hippocampus [7] | MAP2 immunoreactivity (neuronal damage) in the frontal cortex ([7]; vs vehicle-treated APPtg mice) | MAP2 immunoreactivity (neuronal damage) in the hippocampus ([7]; vs vehicle-treated APPtg mice) | NeuN immunoreactivity in the frontal cortex ([7]; vs vehicle-treated APPtg mice) | also measured |
| --- | --- | --- | --- | --- | --- | --- | --- | --- | --- | --- | --- | --- | --- | --- | --- |
| Oc1c(Cl)cc(Cl)c(Cl)c1Cc1c(O)c(Cl)cc(Cl)c1Cl [hexachlorophene] | 5.9 | significant inhibition of fibril growth | 60 to 80 | 5 | comparable to that observed in the vehicle-treated APPtg mice | did not significantly affect | did not significantly affect |  |  |  |  |  |  |  | Kp ([2]; C57/BL6, mouse, in vivo, iv, 10 mg/kg): 0.5; brain penetration ([2]; single IV administration 10 mg/kg): 50% |
| Oc1c(Cl)cc(Cl)cc1Sc1cc(Cl)cc(Cl)c1O [bithionol] | 5.33 | significant inhibition of fibril growth | 60 to 80 | 5.1 | significant reduction | significant and dramatic reduction | significant and dramatic reduction | only few fibrillar aggregates | axons were comparable to controls | significantly reversed | significantly reversed | reversion of the damage | reversion of the damage | increase | half-life ([2]; C57/BL6, mouse, brain, iv, 10 mg/kg): 1.77 h; half-life ([2]; C57/BL6, mouse, plasma, iv, 10 mg/kg): 7.62 h; Aβ42-immunoreactivity in the hippocampus (% area of neuropil) vs vehicle APPtg [5]: significant decrease; GFAP immunoreactivity (astroglial reactivity) in the frontal cortex ([7]; vs vehicle-treated APPtg mice): strong and significant reduction; activation of Slack channels (Slack (Slo2.2) channels): robust activator of Slack channels |
| O=C1c2c(O)ccc(O)c2C(=O)c2c(NCCNCCO)ccc(NCCNCCO)c21 [mitoxantrone] | 1.7 | significant inhibition of fibril growth | 80 to 90 | 2.5 | significant reduction | significant and dramatic reduction | significant and dramatic reduction | only few fibrillar aggregates | axons were comparable to controls | significantly reversed | significantly reversed | reversion of the damage | reversion of the damage | increase | inhibition of protofibril to fibril conversion (protofibrillar Aβ42): > 80%; effect of compound alone on cellular viability of neurons (primary cortical neurons): significant reduction of the cellular viability only at high concentrations; Aβ oligomerization and fibril formation (Aβ): can block Aβ oligomerization and fibril formation |
